# Data as given in PubChem BioAssay (NCI).
#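 Following 48 hours of exposure in 96-well plates, responses at five concentrations were used to interpolate endpoints linearly. At the GI50, growth is halved. TGI marks complete inhibition of growth.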
# Columns and labels:
# Experiment in all cases: NCI tumour cell line growth inhibition, 48 h
# [1] = test system: HOP-62 NSCLC
# [2] = test system: HOP-92 NSCLC
# [3] = test system: NCI-H460 lung
# [4] = test system: NCI-H226 lung
# [5] = test system: SK-MEL-28 melanoma
# [6] = test system: UACC-62 melanoma
# [7] = test system: LOX IMVI melanoma
# [8] = test system: SW-620 colon
# [9] = test system: CAKI-1 renal
Compound,GI50 [1] [µM],TGI [1] [µM],GI50 [2] [µM],TGI [2] [µM],GI50 [3] [µM],TGI [3] [µM],GI50 [4] [µM],TGI [4] [µM],GI50 [5] [µM],TGI [5] [µM],GI50 [6] [µM],TGI [6] [µM],GI50 [7] [µM],TGI [7] [µM],GI50 [8] [µM],TGI [8] [µM],GI50 [9] [µM],TGI [9] [µM]
C[C@@H]1CC[C@H]2[C@@H](C)C(O)O[C@@H]3O[C@]4(C)CC[C@@H]1[C@]32OO4 (stereo not given in full),2.99,18.7,0.716,7.05,1.33,15,1.56,40.9,3.23,> 74.5,0.56,> 76.9,0.309,0.973,0.347,17,0.758,> 47.2
CNC(=O)c1cc(Oc2ccc3nc(NC(=O)Nc4ccc(CN5CCOCC5)c(C(F)(F)F)c4)sc3c2)ccn1,2.82,10.1,1.44,3.64,2.01,4.33,1.73,4.3,1.8,4.29,1.44,4.58,1.82,4.34,3.31,10,2.05,6.83
Cc1c2cnccc2c(C)c2c1c1cc(O)ccc1n2C(C)C,1.6,4.74,2.11,7.28,0.361,1.56,2.82,11.6,1.23,2.96,1.37,4.28,0.47,1.9,0.408,3.27,0.388,5.24
O=C1/C(=C/c2cccnc2)SC(=S)N1Cc1ccco1,–,27.1,–,> 43.1,–,25.1,–,92,–,> 100,–,> 82.3,–,> 100,–,> 100,–,80.6
COc1ccc(-c2nn(-c3cccc(Cl)c3)cc2/C=C2\NC(=S)N(c3ccc(Cl)cc3)C2=O)cc1,3.91,7.83,1.84,8.07,4.7,18.4,4.03,9.36,4.1,7.97,3.29,7.64,5.97,> 25,8.51,> 25,4.79,13.2
COc1ccc(-n2cc(-c3cc(OC)c(OC)c(OC)c3)nc2SCc2ccc(Cl)cc2)cc1OC,> 100,> 100,65.5,> 100,> 100,> 100,> 100,> 100,> 100,> 100,35.5,> 100,> 100,> 100,> 100,> 100,> 100,> 100
Oc1ccc2ccccc2c1CCc1c(O)ccc2ccccc12,–,28.2,–,24.7,–,22.2,–,33.2,–,22.6,–,21.2,–,28,–,28.4,–,20.5
CCCCCCCCCCC(=O)CCCCCCC(=O)O,–,68.8,–,35.8,–,30.9,–,> 100,–,> 100,–,35.5,–,31.4,–,55.7,–,81.5
COc1ccccc1-n1cnc(N)c1C(=O)c1cc(OC)c(OC)c(OC)c1,37.4,> 100,43.8,> 100,3.47,> 100,4.34,> 100,9.62,> 100,1.88,> 100,6.39,> 100,3.25,> 100,3.12,> 100
O=C1Cc2c(-c3ccccc3)cc(-c3ccccc3)nc2-c2ccccc2N1,–,7.73,–,> 100,–,29.6,–,46.9,–,83.7,–,25.7,–,> 100,–,82.5,–,19.9
COc1ccc2[nH]c(Cl)c(/C=C3/C(=O)Nc4ccccc43)c2c1,0.523,1.27,1.99,4.09,1.25,> 34.8,0.782,19.2,0.459,5.47,1.11,2.51,0.345,11.3,0.366,7.58,0.673,1.75
CCN(C(=O)N1CCN(c2cc3c(cc2F)c(=O)c(C(=O)O)cn3C2CC2)CC1)c1nc(-c2ccccc2)cs1,2.82,> 100,2.17,7.53,3.11,> 100,1.84,3.74,3,> 100,2.05,5.62,1.39,9.09,3.93,> 100,2.58,10.3
